Like-named read-outs stand apart in the source and are kept apart here.
Assays:
ddCTP dephosphorylation = assay: ATP inhibition of ddCTP dephosphorylation in erythrocyte lysate; type: biochemical, human; details: 2 mM ATP, 100 μM ddCTP, 37° C
Protocol: Human erythrocytes lysates were prepared by adding 2 volumes of 3 mM sodium potassium phosphate buffer, pH 7.4, containing 3 mM mercaptoethanol, 0.5 mM EDTA to each volume of washed and packed erythrocytes. After 30 min at 4° C., the lysates were centrifuged for 1 h at 12,000×g to remove the cell membranes. The supernatants were then dialyzed overnight against 160 volumes of 0.9% (w/v) NaCl containing 10 mM Tris-HCl, pH 7.5, 10 mM MgCl2 and 0.02 mM EDTA. The dialyzed lysates were then used for the studies of ddCTP stability. Briefly, 900 μl of lysate containing ddCTP 50 μM, 100 μM, 300 μM, 1.2 mM or 1.5 mM in a final volume of 1.2 ml were incubated at 37° C. At time intervals of 0, 15, 30 and 60 min, 250 μl of the incubation mixtures were removed and extracted with 125 μl of 10% (v/v) HClO4. The perchloric acid extract was then neutralized with 23 μl of a 3M solution of K2 CO3, diluted with 60 μl of 0.1M sodium potassium phosphate buffer pH 6.5, centrifuged 10 min at 10,000 rpm in an Eppendorf microcentrifuge and 100 μl of extract analyzed by HPLC as described below. […] Integration of peak areas was obtained by means of an HP 3390A electronic integrator (Hewlett-Packard, Avondale, Pa., U.S.A.). […]

[1] = cited from earlier work
[2] = In vivo half life of loaded erythrocytes in mice (125I-ubiquitin radioactivity)
Protocol: Similar experiments were also performed on mice erythrocytes to do in vivo studies. The results are similar to those reported above. The in vivo half life of these erythrocytes was evaluated by following the radioactivity of ^125 I-ubiquitin-loaded erythrocytes coencapsulated with ddCTP in erythrocytes treated or not with ZnCl2 and BS^3.
In this case, the radioactivity associated with the erythrocytes was determined on blood collected from the tail vein of animals receiving the erythrocytes described above.

[3] = system: human erythrocytes lysates; assay: ddCTP stability in human erythrocytes lysates (HPLC); type: in vitro ADME; details: for time stable in erythrocyte lysate: in the presence or absence of ATP
Protocol: Human erythrocytes lysates were prepared by adding 2 volumes of 3 mM sodium potassium phosphate buffer, pH 7.4, containing 3 mM mercaptoethanol, 0.5 mM EDTA to each volume of washed and packed erythrocytes. After 30 min at 4° C., the lysates were centrifuged for 1 h at 12,000×g to remove the cell membranes. The supernatants were then dialyzed overnight against 160 volumes of 0.9% (w/v) NaCl containing 10 mM Tris-HCl, pH 7.5, 10 mM MgCl2 and 0.02 mM EDTA. The dialyzed lysates were then used for the studies of ddCTP stability. Briefly, 900 μl of lysate containing ddCTP 50 μM, 100 μM, 300 μM, 1.2 mM or 1.5 mM in a final volume of 1.2 ml were incubated at 37° C. At time intervals of 0, 15, 30 and 60 min, 250 μl of the incubation mixtures were removed and extracted with 125 μl of 10% (v/v) HClO4. The perchloric acid extract was then neutralized with 23 μl of a 3M solution of K2 CO3, diluted with 60 μl of 0.1M sodium potassium phosphate buffer pH 6.5, centrifuged 10 min at 10,000 rpm in an Eppendorf microcentrifuge and 100 μl of extract analyzed by HPLC as described below. […] Integration of peak areas was obtained by means of an HP 3390A electronic integrator (Hewlett-Packard, Avondale, Pa., U.S.A.). A 5 μm Supelcosil LC-18 column (250 mm×4.6 mm I.D., Supelco, Bellefonte, Pa., U.S.A.) protected by a guard column (Pelliguard LC-18, 20 mm×4.6 mm I.D., pellicular packing material, 40 μm particles) was used throughout these studies. […] All buffer solutions, as well as standards and sample solutions, were filtered through a 0.22 μm membrane filter (Millipore).
The elution conditions used to obtain the chromatograms were: 2 min 100% buffer A, 4 min up to 10% buffer B, 4 min up to 40% buffer B, 3 min up to 100% buffer B and the same conditions are maintained for 7 min. The gradient was then returned to 100% buffer A in 2 min and the initial conditions restored in 8 min. The flow-rate was 1.3 ml/min and the detection wavelength was 272 nm. The analyses were performed at room temperature. Quantitative measurements were carried out by injection of standard solutions of known concentration.

human erythrocytes [4] = details: cited from earlier work
[5] = system: human monocytes/macrophages; assay: Delivery of 3H-ddCTP to monocytes/macrophages by phagocytosis; type: cell-based; details: 3H-ddCTP-loaded erythrocytes
Protocol: Human monocytes/macrophages were prepared from heparinized blood by Lymphoprep (Nyegaard & Co Oslo, Norway) centrifugation. Mononuclear cells collected at the interface between the Lymphoprep and plasma were washed in 5 mM sodium potassium phosphate buffer, pH 7.4, containing 0.9% (w/v) NaCl, 5 mM glucose and finally resuspended in RPMI 1640 medium containing 10% (v/v) fetal bovine serum (FCS). 8.10^6 cells were placed into 100 mm Corning dish and incubated overnight at 37° C. and 5% CO2. Adherent monocytes/macrophages cells were separated from the lymphocytes by three washing steps in RPMI/FCS medium, counted by Tripan blue exclusion dye and incubated with ddCTP-loaded erythrocytes treated or not with ZnCl2 plus BS^3 or with unloaded erythrocytes overnight at 37° C. at a ratio of 100 erythrocytes per monocytes/macrophages. During the loading procedure ^125 I-ubiquitin (2.1 mCi/mg) was also encapsulated as an internal marker to follow phagocytosis both into ddCTP-loaded on ddCTP-unloaded erythrocytes. (Ubiquitin is a polypeptide of 8 KDa that can be easily encapsulated and is retained by the erythrocytes).
After monocytes/macrophages-erythrocytes incubation the dishes were extensively washed with RPMI 1640 medium to remove all erythrocytes not phagocytosed, followed by a 0.9% ammonium chloride washing step to remove adherent erythrocytes that were not yet phagocytosed. […]

[6] = Stability of ddCTP in intact ddCTP-loaded erythrocytes; type: in vitro ADME, human; details: human, erythrocytes; incubation time over 3 h, 37° C; read-out: decay of ddCTP
Protocol: (§1) In this case the stability of ddCTP (1 mM) in loaded erythrocytes was evaluated at 37° C. by incubation of ddCTP-loaded erythrocytes at 6% hematocrit in 0.9% (w/v) NaCl containing 10 mM glucose, 5 mM sodium, potassium phosphate buffer, pH 7.4. At different time intervals (0 to 5 h) aliquots (200 μl) of the incubation suspensions were extracted with 100 μl 10% (w/v) HClO4, centrifuged, neutralized and submitted to HPLC analyses as above. In some experiments ^3 H-ddCTP (4 Ci/mmol, Moravek Biochemicals, Inc. Brea Ca) was used.
(§2) In this case fractions of 0.3 ml were collected at the exit of the wavelength detector of the HPLC system by using an LKB fraction collector and counted in a Packard liquid scintillation Counter. Both methods (HPLC detection and liquid scintillation counting) provided similar results (i.e. ddCTP was stable in erythrocytes until ATP was maintained at physiological concentrations of 1.2 mM, while ddCTP dephosphorylation starts when ATP fall down to values lower than 1 mM.

human erythrocytes [7] = assay: as above; type: in vitro ADME
Protocol: as §1, §2

cytidine deaminase = cytidine deaminase (Homo sapiens, UniProt P32320); details: cited from earlier work
cytidine deaminase, sequence (P32320 whole entry): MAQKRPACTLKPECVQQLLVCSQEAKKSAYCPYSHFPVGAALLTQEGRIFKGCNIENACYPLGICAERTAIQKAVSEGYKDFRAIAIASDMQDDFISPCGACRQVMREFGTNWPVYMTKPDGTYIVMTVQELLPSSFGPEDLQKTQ

HIV = details: cited from earlier work

Structure (SMILES): Nc1ncnc2c1ncn2[C@@H]1O[C@H](COP(=O)(O)OP(=O)(O)OP(=O)(O)O)[C@@H](O)[C@H]1O [ATP]
- effect on ddCTP dephosphorylation (ddCTP dephosphorylation): completely abolishes

Structure (SMILES): Cc1cn([C@H]2C[C@H](N=[N+]=[N-])[C@@H](CO)O2)c(=O)[nH]c1=O [AZT, 3'-azido-3'-deoxythymidine]
- short plasma half-life (approximate) ([1]; human, in vivo): approximately 1 h

Structure (SMILES): [Cl-].[Cl-].[Zn+2] [ZnCl2]
- lowest ZnCl2 concentration able to modify red cell survival [2]: 0.1 mM

Structure (SMILES): Nc1ncnc2c1ncn2[C@H]1CC[C@@H](COP(=O)(O)OP(=O)(O)OP(=O)(O)O)O1 [ddATP, 2',3'-dideoxyadenosine-5'-triphosphate]
- time stable in erythrocyte lysate ([3]; 37° C): at least 2 h

Structure (SMILES): Nc1ccn([C@H]2CC[C@@H](COP(=O)(O)O)O2)c(=O)n1 [ddCMP, 2',3'-dideoxycytidine-5'-phosphate]
- fate of ddCMP encapsulated in human erythrocytes (human erythrocytes [4]): dephosphorylated by endogenous pyrimidine nucleotidases and subsequently released by the cells as ddCyd

Structure (SMILES): Nc1ccn([C@H]2CC[C@@H](COP(=O)(O)OP(=O)(O)OP(=O)(O)O)O2)c(=O)n1 [ddCTP, 2',3'-dideoxycytidine-5'-triphosphate]
- concentration of ddCTP in monocytes/macrophages after phagocytosis [5]: 2.88 µM
- metabolised at 3 h, 1000 µM [6]: 20%
- ATP concentration below which ddCTP dephosphorylation starts (human erythrocytes [7]): lower than 1 mM
- stability of ddCTP in intact cells (human erythrocytes [7]; 37° C, 1 mM ddCTP, 6% hematocrit): stable even at 37 °C
- pH of maximum dephosphorylation rate [3]: 8.4
- Vmax of dephosphorylation of ddCTP to ddCDP ([3]; 37° C): 3±0.5 nmol/min/g HB
- Km ([3]; 37° C, read-out: Km of dephosphorylation of ddCTP to ddCDP): 140 µM
- dephosphorylation rate relative to maximum rate ([3]; pH 7.2 (physiological value)): 50%

Structure (SMILES): Nc1ccn([C@H]2CC[C@@H](CO)O2)c(=O)n1 [ddCyd, 2',3'-Dideoxycytidine]
- resistance to cytidine deaminase (cytidine deaminase): resistant to cytidine deaminase
- concentration that completely protects target helper/inducer T cells against HIV infections (HIV; in vitro): ≥ 0.5 µM
- concentration that can suppress the virus (HIV; low multiplicity of infection): ≥ 10 nM
- concentration ([1]; 0.09 mg/Kg, intravenous, 4 h, read-out: plasma level at four hours after intravenous administration): < 100 nM
- bioavailability ([1]; human, in vivo): good bioavailability
- short plasma half-life (approximate) ([1]; human, in vivo): approximately 1 h
- concentration ([1]; patients receiving 0.09 mg/Kg, read-out: plasma level during the infusion): > 500 nM

Structure (SMILES): Nc1nc2c(ncn2[C@H]2CC[C@@H](COP(=O)(O)OP(=O)(O)OP(=O)(O)O)O2)c(=O)[nH]1 [ddGTP, 2',3'-dideoxyguanosine-5'-triphosphate]
- time stable in erythrocyte lysate ([3]; 37° C): at least 2 h

Structure (SMILES): O=c1[nH]cnc2c1ncn2[C@H]1CC[C@@H](COP(=O)(O)OP(=O)(O)OP(=O)(O)O)O1 [ddITP, 2',3'-dideoxyinosine-5'-triphosphate]
- time stable in erythrocyte lysate ([3]; 37° C): at least 2 h

Source: US5753221A, “Transformed erythrocytes, process for preparing the same, and their use in pharmaceutical compositions” (priority 1991, dated 1998)
